Results on five molecules are retold here after patent US4840949A, “Oxadiazole-alkyl-purine derivatives useful as antitussive agents” (Chinoin Gyogyszer Es Vegyeszeti Termekek Gyara Rt., priority 1986, dated 1989).

SMILES strings stand for the structures. Where a name gives a salt, the structure may show the parent alone.

Data set [1] in a line: Alleviation of coughing caused by 15% citric acid spray on guinea pig, oral administration. The data set is classed as in vivo. Conditions: for ED50: Cavia porcellus, po; for absolute strength of the antitussive effect, in words: Table I. The protocol: The aforesaid facts are supported by Table I wherein the ID50 mg/kg values of 3,7-dihydro-3-methyl-7-[(5-methyl-1,2,4-oxadiazole-3-yl)-methyl]-1H-purine-2,6-dione (the most simple representative of the compounds of the Formula I); two known 1,2,4-oxadiazole-type antitussive agents, codeine and dextromethorphane (morphine type reference compounds) in the alleviation of coughing caused by a 15% citric acid spray are disclosed. […] As test animal guinea pigs are used. (Method: Arzneimittel Forschung 1966, 617-621). Test compound No. 5 is 2-(3-methyl-xanthine-7-yl)-acetamidoxime (a starting material of the Formula II).
Alleviation of coughing caused by 15% citric acid spray on
guinea pig, the test compounds are administered orally
Antitussive effect of p.o. administered 3,7-dihydro-3-methyl-7-
[(5-methyl-1,2,4-oxadiazole-3-yl)-methyl]-lH--purine-2,6-dione
on coughing induced by 15% citric acid spray on guinea pig

The nature of data set [2]: Coughing caused by mechanical stimulation of the trachea bifurcatio on rabbits narcotised by nembutal, i.v. administration. Type of data set: in vivo, rabbit.
The nature of data set [3]: in vivo. Conditions: rat, ip.
The mark [4] stands for this setting: 1 hour pre-treatment, 15% citric acid spray, read-out: Antitussive effect, measured 1 hour after oral administration ID50.

For `Cc1nc(Cn2cnc3c2c(=O)n(C)c(=O)n3C)no1` [Compound 2, 3,7-dihydro-1,3-dimethyl-7-[(5-methyl-1,2,4-oxadiazole-3-yl)-methyl]-1H--purine-2,6-dione, reference compound], in data set [1] (setting [4]), the ED50 came out at 111 mg/kg.
Regarding `COc1ccc2c(c1)[C@]13CCCC[C@@H]1[C@H](C2)N(C)CC3` [Compound 6, Dextromethorphan, reference compound], the “antitussive effect relative to compound No. 1” value in data set [2] (rabbit, i.v.) is “the same or a somewhat lower antitussive effect”.
One may read the LD50 as the dose at which mortality reaches 50%. Lower therefore signals a more toxic substance. For `Cc1nc(Cn2cnc3c2c(=O)[nH]c(=O)n3C)no1` [Compound 1, 3,7-dihydro-3-methyl-7-[(5-methyl-1,2,4-oxadiazole-3-yl)-methyl]-1H-purine-2,6-dione], the ED50 in data set [2] (Oryctolagus cuniculus, iv, 2 min, rabbit, i.v., 2 minutes after administration, calculated according to Lichfield-Wilcoxon) was 2.24 mg/kg; in data set [1] (setting [4]), 8.5 mg/kg; in data set [1] (pre-treatment time 2.0 h, read-out: ID50, pre-treatment time 2.0 h), 14.4 mg/kg; in data set [1] (pre-treatment time 4.0 h, read-out: ID50, pre-treatment time 4.0 h), 13.8 mg/kg; in data set [1] (pre-treatment time 8.0 h, read-out: ID50, pre-treatment time 8.0 h), 32.6 mg/kg; in data set [1] (read-out: ID50, pre-treatment time 0.5 h, p.o., pre-treatment time 0.5 h), 7.5 mg/kg. The “decrease of coughing caused by mechanical stimulation” value in data set [2] (rabbit, 0.5-8.0 mg/kg i.v.) is listed as “decreases in dose-dependant manner”. Also, the “therapeutical index relative to reference compounds Nos. 4 and 6” value in data set [2] (taking into consideration the I.O. toxicity data) is reported as “ten times more favorable”. Moreover, the 50% lethal dose (LD50) in data set [3] was determined as 700 mg/kg. The “absolute strength of the antitussive effect, in words” value in data set [1] (p.o.) was “significantly higher than that of reference compounds Nos. 2-4 and 6”. In addition, the “duration of oral antitussive effect” value in data set [1] (p.o., Table I/A) is given as “very long-lasting”.
With `Cn1c(=O)[nH]c(=O)c2c1ncn2CC(N)=NO` [Compound 5, 2-(3-methyl-xanthine-7-yl)-acetamidoxime, reference compound], in data set [1] (50 mg/kg p.o., 1 hour after administration), the “Antitussive effect at 50 mg/kg” value was “inactive”. Also, the “absolute strength of the antitussive effect, in words” value in data set [1] (p.o.) is listed as “practically negligible”.
`COc1ccc2c3c1O[C@H]1[C@@H](O)C=C[C@H]4[C@@H](C2)N(C)CC[C@@]341` [Compound 4, Codeine.HCl, reference compound]: the “antitussive effect relative to compound No. 1” value in data set [2] (rabbit, i.v.) is on record as “the same or a somewhat lower antitussive effect”. Also, the LD50 in data set [3] turned out to be 72.4 mg/kg.
